One experiment concerns the target CDK4/cyclin D1 (Homo sapiens, UniProt P11802). As to the kind of experiment: Kinase assay, radioactive phosphate incorporation, CDK4/cyclin D1. To be noted: 100 μM ATP, 30° C.; read-out: Kinase inhibition IC50 CDK4/cyclin D1. It is filed as biochemical. An outline of the steps:
(§1)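 Inhibition is measured as reduced transfer of radioactive phosphate to a polypeptide substrate by 2-4 μg of recombinant enzyme. Mixtures with Mg/ATP (100 μM ATP, 15 mM MgCl2, [γ-32P]-ATP) in pH 7.4 MOPS-based buffer incubate at 30° C, are stopped on ice, filtered and counted.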

A further experiment deals with CDK2/cyclin A (Homo sapiens, UniProt P24941). As to the kind of experiment: Kinase assay, radioactive phosphate incorporation, CDK2/cyclin A. Format: biochemical. To be noted: 100 μM ATP, 30° C.; read-out: Kinase inhibition IC50 CDK2/cyclin A. An outline of the steps:
as §1

Another experiment deals with CDK7/cyclin H (Homo sapiens, UniProt P50613). As to the kind of experiment: Kinase assay, radioactive phosphate incorporation, CDK7/cyclin H. It is filed as biochemical. To be noted: 100 μM ATP, 30° C.; read-out: Kinase inhibition IC50 CDK7/cyclin H. Put shortly:
as §1

Another experiment concerns the target T1, Aurora-A (Homo sapiens, UniProt O14965).
T1 sequence (O14965 1-403): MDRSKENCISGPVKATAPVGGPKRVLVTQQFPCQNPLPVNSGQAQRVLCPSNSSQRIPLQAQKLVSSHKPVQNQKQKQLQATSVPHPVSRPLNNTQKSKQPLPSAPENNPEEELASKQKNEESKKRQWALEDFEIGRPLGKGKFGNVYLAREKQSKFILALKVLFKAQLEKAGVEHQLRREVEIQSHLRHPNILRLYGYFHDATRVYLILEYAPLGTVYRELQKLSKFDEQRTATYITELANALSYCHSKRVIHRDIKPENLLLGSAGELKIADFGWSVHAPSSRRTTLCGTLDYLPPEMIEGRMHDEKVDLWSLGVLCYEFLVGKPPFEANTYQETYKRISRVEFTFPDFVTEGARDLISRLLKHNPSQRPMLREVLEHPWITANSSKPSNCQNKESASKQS
Briefly: Kinase assay, radioactive phosphate incorporation, Aurora-A. Format: biochemical. To be noted: 100 μM ATP, 30° C.; read-out: Kinase inhibition IC50 Aurora-A. On the procedure: The compounds from the examples above were investigated for their ability to inhibit the enzymatic activity of various protein kinases. This was achieved by measurement of incorporation of radioactive phosphate from ATP into appropriate polypeptide substrates. Recombinant protein kinases and kinase complexes were produced or obtained commercially. Assays were performed using 96-well plates and appropriate assay buffers (typically 25 mM β-glycerophosphate, 20 mM MOPS, 5 MM EGTA, 1 mM DTT, 1 mM Na3VO3, pH 7.4), into which were added 2-4 μg of active enzyme with appropriate substrates. The reactions were initiated by addition of Mg/ATP mix (15 mM MgCl2+100 μM ATP with 30-50 kBq per well of [γ-^32P]-ATP) and mixtures incubated as required at 30° C. Reactions were stopped on ice, followed by filtration through p81 filterplates or GF/C filterplates (Whatman Polyfiltronics, Kent, UK). After washing 3 times with 75 mM aq orthophosphoric acid, plates were dried, scintillant added and incorporated radioactivity measured in a scintillation counter (TopCount, Packard Instruments, Pangbourne, Berks, UK). Compounds for kinase assay were made up as 10 mM stocks in DMSO and diluted into 10% DMSO in assay buffer.

For the next experiment, the target named is GSK3β (Homo sapiens, UniProt P49841). As to the kind of experiment: Kinase assay, radioactive phosphate incorporation, GSK3β. The conditions noted are these: 100 μM ATP, 30° C.; read-out: Kinase inhibition IC50 GSK3β. It is filed as biochemical. Put shortly: as §1
The target of the next experiment is CDK2/cyclin E (Homo sapiens, UniProt P24941). Briefly: Kinase assay, radioactive phosphate incorporation, CDK2/cyclin E. It is filed as biochemical. To be noted: 100 μM ATP, 30° C.; read-out: Kinase inhibition IC50 CDK2/cyclin E. Put shortly: as §1
For the next experiment, the target named is CDK1/cyclin B (Homo sapiens, UniProt P06493). Briefly: Kinase assay, radioactive phosphate incorporation, CDK1/cyclin B. The conditions noted are these: 100 μM ATP, 30° C.; read-out: Kinase inhibition IC50 CDK1/cyclin B. It is filed as biochemical. Put shortly: as §1
The target of the next experiment is CDK9/cyclin T1 (Homo sapiens, UniProt P50750). As to the kind of experiment: Kinase assay, radioactive phosphate incorporation, CDK9/cyclin T1. It is filed as biochemical. The conditions noted are these: 100 μM ATP, 30° C.; read-out: Kinase inhibition IC50 CDK9/cyclin T1. Put shortly:
as §1

Experiment [1] concerns transformed human cell lines (A549, HT29, Saos-2). Briefly: 72-h MTT cytotoxicity assay, average of cell lines. It is filed as cell-based. To be noted: read-out: 72-h MTT IC50 Average, average of A549, HT29, Saos-2. An outline of the steps: (§2)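 Standard proliferation test: 72 h compound exposure at 37° C in triplicate, followed by MTT staining and DMSO solubilisation.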
Background: Tetrazolium assays rely on reduction of a dye to a coloured formazan, in cell work by metabolically active cells.

A further experiment deals with Saos-2. Briefly: 72-h MTT cytotoxicity assay, Saos-2. It is filed as cell-based. The conditions noted are these: Homo sapiens, read-out: 72-h MTT IC50 Saos-2, Saos-2 cell line. Put shortly:
as §2

A further experiment deals with HT29. As to the kind of experiment: 72-h MTT cytotoxicity assay, HT29. Format: cell-based. To be noted: Homo sapiens, HT-29, read-out: 72-h MTT IC50 HT29, HT29 cell line. Put shortly:
as §2

The test system of another experiment is A549. Briefly: 72-h MTT cytotoxicity assay, A549. To be noted: Homo sapiens, read-out: 72-h MTT IC50 A549, A549 cell line. Format: cell-based. An outline of the steps:
as §2

CDK1/cyclin B, sequence (P06493 whole entry, species assumed): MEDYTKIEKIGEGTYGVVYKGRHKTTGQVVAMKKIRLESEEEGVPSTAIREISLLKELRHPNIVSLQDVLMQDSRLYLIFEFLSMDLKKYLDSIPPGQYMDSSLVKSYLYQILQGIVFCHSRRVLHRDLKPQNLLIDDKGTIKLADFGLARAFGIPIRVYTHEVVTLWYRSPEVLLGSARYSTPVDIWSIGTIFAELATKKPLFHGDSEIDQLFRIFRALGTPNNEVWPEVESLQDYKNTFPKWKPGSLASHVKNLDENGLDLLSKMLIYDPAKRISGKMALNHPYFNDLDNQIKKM
CDK1/cyclin B, sequence (P14635 whole entry partner, species assumed): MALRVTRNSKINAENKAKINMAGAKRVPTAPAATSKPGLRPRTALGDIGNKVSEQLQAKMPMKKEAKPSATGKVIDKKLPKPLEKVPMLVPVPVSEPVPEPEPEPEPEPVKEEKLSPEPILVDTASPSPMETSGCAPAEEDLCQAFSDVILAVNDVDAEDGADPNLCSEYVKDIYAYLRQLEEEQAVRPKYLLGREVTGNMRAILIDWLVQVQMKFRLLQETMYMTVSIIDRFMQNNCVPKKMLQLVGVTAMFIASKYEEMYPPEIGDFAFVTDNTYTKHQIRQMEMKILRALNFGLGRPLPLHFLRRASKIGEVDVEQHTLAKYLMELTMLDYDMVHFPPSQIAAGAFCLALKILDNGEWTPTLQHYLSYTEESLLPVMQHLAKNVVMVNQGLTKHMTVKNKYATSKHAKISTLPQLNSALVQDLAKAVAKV
CDK7/cyclin H, sequence (P50613 whole entry, species assumed): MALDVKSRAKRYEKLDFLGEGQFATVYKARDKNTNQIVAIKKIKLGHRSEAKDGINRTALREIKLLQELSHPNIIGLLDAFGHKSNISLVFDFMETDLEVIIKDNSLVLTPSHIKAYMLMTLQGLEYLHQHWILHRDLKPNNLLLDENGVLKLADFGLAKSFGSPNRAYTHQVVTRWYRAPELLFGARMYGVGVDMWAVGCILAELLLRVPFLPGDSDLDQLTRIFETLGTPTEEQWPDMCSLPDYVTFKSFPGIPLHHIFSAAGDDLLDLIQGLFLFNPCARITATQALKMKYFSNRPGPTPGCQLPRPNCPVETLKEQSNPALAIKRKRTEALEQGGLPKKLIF
CDK7/cyclin H, sequence (P51946 whole entry partner, species assumed): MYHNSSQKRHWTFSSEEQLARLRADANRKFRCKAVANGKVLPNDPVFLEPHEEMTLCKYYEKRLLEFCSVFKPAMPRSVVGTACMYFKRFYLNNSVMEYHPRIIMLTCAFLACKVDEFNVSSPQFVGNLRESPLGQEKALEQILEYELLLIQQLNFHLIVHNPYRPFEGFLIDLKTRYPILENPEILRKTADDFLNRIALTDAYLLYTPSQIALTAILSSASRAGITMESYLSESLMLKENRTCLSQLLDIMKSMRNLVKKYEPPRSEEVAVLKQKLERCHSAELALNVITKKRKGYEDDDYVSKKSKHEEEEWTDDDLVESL
CDK9/cyclin T1, sequence (P50750 whole entry, species assumed): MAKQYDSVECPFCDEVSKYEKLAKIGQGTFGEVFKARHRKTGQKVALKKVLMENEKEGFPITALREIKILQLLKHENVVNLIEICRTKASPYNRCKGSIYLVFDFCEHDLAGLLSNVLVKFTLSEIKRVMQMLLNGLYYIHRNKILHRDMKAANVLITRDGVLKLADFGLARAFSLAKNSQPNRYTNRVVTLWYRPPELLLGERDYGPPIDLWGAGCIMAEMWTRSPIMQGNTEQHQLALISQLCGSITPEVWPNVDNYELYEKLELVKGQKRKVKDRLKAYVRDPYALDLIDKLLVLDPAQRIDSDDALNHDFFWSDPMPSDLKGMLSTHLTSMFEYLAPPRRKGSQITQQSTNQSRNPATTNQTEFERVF
CDK9/cyclin T1, sequence (O60563 whole entry partner, species assumed): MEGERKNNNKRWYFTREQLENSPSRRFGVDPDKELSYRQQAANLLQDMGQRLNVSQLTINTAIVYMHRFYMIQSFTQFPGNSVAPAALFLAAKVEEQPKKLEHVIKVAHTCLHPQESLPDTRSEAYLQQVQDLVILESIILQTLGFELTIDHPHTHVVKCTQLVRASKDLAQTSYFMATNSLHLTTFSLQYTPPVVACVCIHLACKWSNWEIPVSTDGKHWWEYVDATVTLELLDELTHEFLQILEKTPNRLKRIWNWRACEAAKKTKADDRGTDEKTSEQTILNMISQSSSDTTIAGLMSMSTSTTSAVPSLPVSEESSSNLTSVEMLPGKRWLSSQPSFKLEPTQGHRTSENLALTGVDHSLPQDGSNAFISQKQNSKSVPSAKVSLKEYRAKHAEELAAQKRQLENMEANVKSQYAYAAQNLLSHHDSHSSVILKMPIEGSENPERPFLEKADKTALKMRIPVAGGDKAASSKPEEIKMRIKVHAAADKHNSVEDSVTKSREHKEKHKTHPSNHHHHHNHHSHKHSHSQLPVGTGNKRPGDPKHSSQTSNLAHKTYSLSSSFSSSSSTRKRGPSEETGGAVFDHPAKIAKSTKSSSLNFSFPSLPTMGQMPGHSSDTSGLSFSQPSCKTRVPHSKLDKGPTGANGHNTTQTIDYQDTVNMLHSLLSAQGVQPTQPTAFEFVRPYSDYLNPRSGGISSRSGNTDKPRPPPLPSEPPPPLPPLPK
CDK4/cyclin D1, sequence (P11802 whole entry, species assumed): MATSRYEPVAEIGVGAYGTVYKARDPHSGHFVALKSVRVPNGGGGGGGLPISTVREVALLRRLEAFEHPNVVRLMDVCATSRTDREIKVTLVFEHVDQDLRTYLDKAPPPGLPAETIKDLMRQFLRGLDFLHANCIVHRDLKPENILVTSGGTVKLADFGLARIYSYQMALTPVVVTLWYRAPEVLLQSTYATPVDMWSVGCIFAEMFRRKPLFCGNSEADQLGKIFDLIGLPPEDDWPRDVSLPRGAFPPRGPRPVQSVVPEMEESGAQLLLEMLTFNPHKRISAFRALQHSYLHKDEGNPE
CDK4/cyclin D1, sequence (P24385 whole entry partner, species assumed): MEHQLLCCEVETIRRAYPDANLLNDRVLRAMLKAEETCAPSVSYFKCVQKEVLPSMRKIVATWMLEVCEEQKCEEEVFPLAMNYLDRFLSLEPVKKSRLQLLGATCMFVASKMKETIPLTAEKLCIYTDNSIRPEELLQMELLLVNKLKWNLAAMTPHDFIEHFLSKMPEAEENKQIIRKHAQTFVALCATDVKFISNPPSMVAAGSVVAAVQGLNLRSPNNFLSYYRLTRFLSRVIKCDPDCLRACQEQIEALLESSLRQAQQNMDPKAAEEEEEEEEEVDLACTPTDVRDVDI
GSK3β, sequence (P49841 whole entry, species assumed): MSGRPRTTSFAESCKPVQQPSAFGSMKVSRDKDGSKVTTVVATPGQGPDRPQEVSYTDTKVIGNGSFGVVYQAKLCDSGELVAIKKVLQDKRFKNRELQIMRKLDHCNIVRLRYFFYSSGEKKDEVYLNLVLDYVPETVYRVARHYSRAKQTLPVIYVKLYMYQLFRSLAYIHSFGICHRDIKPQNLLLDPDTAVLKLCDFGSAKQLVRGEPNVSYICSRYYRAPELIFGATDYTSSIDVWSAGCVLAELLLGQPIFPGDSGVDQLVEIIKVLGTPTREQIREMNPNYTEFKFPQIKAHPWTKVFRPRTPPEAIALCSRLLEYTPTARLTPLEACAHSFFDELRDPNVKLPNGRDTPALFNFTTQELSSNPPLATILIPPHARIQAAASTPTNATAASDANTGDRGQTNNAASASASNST

On to `OCc1cccc(Nc2nccc(-c3cccc(O)c3)n2)c1` [Compound 72, 3-[2-(3-Hydroxymethyl-phenylamino)-pyrimidin-4-yl]-phenol], for which the IC50 on CDK4/cyclin D1 came to 280 nM; at CDK2/cyclin A, 150 nM; on CDK7/cyclin H, 1700 nM; at Aurora-A it was 40 nM; on GSK3β, 30 nM; on CDK2/cyclin E, 120 nM. Further, on CDK1/cyclin B, the IC50 came to 150 nM.

On to `COc1ccc(-c2ccnc(Nc3cccc(O)c3)n2)cc1` [Compound 76, 3-[4-(4-Methoxy-phenyl)-pyrimidin-2-ylamino]-phenol], for which the IC50 at CDK4/cyclin D1 is 10 nM; on CDK2/cyclin A, below 1 nM; on CDK7/cyclin H it was 120 nM; at Aurora-A it was 50 nM; at CDK9/cyclin T1, below 1 nM; on GSK3β, 10 nM. Also, the results for the IC50 on CDK2/cyclin E and on CDK1/cyclin B were 10 nM and 1 nM, respectively.

Consider `CN(C)Cc1cccc(-c2ccnc(Nc3cccc(O)c3)n2)c1` [Compound 80, 3-[4-(3-Dimethylaminomethyl-phenyl)-pyrimidin-2-ylamino]-phenol], for which the IC50 at CDK2/cyclin A stood at 590 nM; in [1] it was 2200 ± 1600 nM; in the experiment with Saos-2, 4000 nM; with HT29, 1600 nM; with A549, 860 nM; at CDK7/cyclin H, 720 nM. Also, the IC50 on Aurora-A is 1500 nM; on CDK9/cyclin T1 it was 10 nM; on GSK3β, 830 nM; on CDK2/cyclin E, 70 nM; at CDK1/cyclin B, 690 nM.

Consider `CN(C)Cc1cccc(-c2ccnc(Nc3ccc(O)cc3)n2)c1` [Compound 81, 4-[4-(3-Dimethylaminomethyl-phenyl)-pyrimidin-2-ylamino]-phenol], for which the IC50 at CDK2/cyclin A amounted to 500 nM; in [1] it was 2600 ± 2100 nM; in the experiment with Saos-2, 5000 nM; in the experiment on HT29, 1200 nM; in the experiment on A549 it was 1500 nM; at CDK7/cyclin H, 1400 nM. Besides, the IC50 was determined as 1000 nM at Aurora-A; 20 nM on CDK9/cyclin T1; 1300 nM on GSK3β; 110 nM at CDK2/cyclin E; 1300 nM on CDK1/cyclin B.

`COc1ccc(Nc2nccc(-c3cccc(CN(C)C)c3)n2)cn1` [Compound 83, [4-(3-Dimethylaminomethyl-phenyl)-pyrimidin-2-yl]-(6-methoxy-pyridin-3-yl)-amine]: the IC50 is 650 nM at CDK2/cyclin A; 1300 ± 400 nM in [1]; 1600 nM in the experiment with Saos-2; 910 nM in the experiment on HT29; 1400 nM in the experiment on A549; 990 nM on CDK7/cyclin H. The IC50 at Aurora-A amounted to 7800 nM; on CDK9/cyclin T1, 20 nM; on GSK3β it was 150 nM; at CDK2/cyclin E it was 190 nM; at CDK1/cyclin B, 380 nM.

Take `CCN(CC)Cc1cccc(-c2ccnc(Nc3cccc([N+](=O)[O-])c3)n2)c1` [Compound 84, [4-(3-Diethylaminomethyl-phenyl)-pyrimidin-2-yl]-(3-nitro-phenyl)-amine]: the IC50 worked out at 3200 nM on CDK4/cyclin D1; 20 nM on CDK2/cyclin A; 90 nM at CDK7/cyclin H; 570 nM on Aurora-A; 4 nM at CDK9/cyclin T1; 20 nM at GSK3β. The IC50 at CDK2/cyclin E was determined as 60 nM; at CDK1/cyclin B it was 20 nM.

For the compound `COc1cccc(-c2ccnc(Nc3cccc(O)c3)n2)c1` [Compound 88, 3-[4-(3-Methoxy-phenyl)-pyrimidin-2-ylamino]-phenol], the IC50 on CDK4/cyclin D1 came to 200 nM; on CDK2/cyclin A, 1400 nM; at Aurora-A, 20 nM; at CDK9/cyclin T1, 5 nM; at GSK3β, 80 nM; on CDK2/cyclin E, 100 nM. Besides, the IC50 on CDK1/cyclin B was determined as 570 nM.

As for `O=[N+]([O-])c1cccc(Nc2nccc(-c3cccc(CO)c3)n2)c1` [Compound 91, {3-[2-(3-Nitro-phenylamino)-pyrimidin-4-yl]-phenyl}-methanol], the IC50 on CDK4/cyclin D1 was 870 nM; on CDK2/cyclin A it was 470 nM; at CDK7/cyclin H, 550 nM; at Aurora-A it was 160 nM; at CDK9/cyclin T1, 0.1 nM; on GSK3β it was 0.7 nM. Further, the IC50 on CDK2/cyclin E amounted to 60 nM; on CDK1/cyclin B, 590 nM.

With `N#Cc1cccc(-c2ccnc(Nc3cccc(O)c3)n2)c1` [Compound 92, 3-[2-(3-Hydroxy-phenylamino)-pyrimidin-4-yl]-benzonitrile], the IC50 amounted to 1400 nM on CDK4/cyclin D1; 940 nM on Aurora-A; 110 nM at CDK9/cyclin T1; 80 nM at GSK3β; 2100 nM at CDK1/cyclin B.

With `N#Cc1cccc(-c2ccnc(Nc3ccc(O)cc3)n2)c1` [Compound 93, 3-[2-(4-Hydroxy-phenylamino)-pyrimidin-4-yl]-benzonitrile], the values for the IC50 at CDK4/cyclin D1, on Aurora-A and at CDK1/cyclin B were 2500 nM, 1000 nM and 3100 nM, respectively.

Turning to `COc1cccc(-c2ccnc(Nc3ccc(O)cc3)n2)c1` [Compound 98, 4-[4-(3-Methoxy-phenyl)-pyrimidin-2-ylamino]-phenol], the IC50 on CDK4/cyclin D1 stood at 590 nM; at CDK2/cyclin A it was 1400 nM; on Aurora-A it was 640 nM; on CDK9/cyclin T1, 6 nM; on GSK3β it was 350 nM; on CDK2/cyclin E, 130 nM. The IC50 on CDK1/cyclin B is 1100 nM.

In the case of `O=[N+]([O-])c1cccc(Nc2nccc(-c3cccc(CN4CCCC(CO)C4)c3)n2)c1` (centres unmarked) [Compound 105, (1-{3-[2-(3-Nitro-phenylamino)-pyrimidin-4-yl]-benzyl}-piperidin-3-yl)-methanol], the IC50 at CDK4/cyclin D1 was 1900 nM; at CDK2/cyclin A it was 350 nM; on CDK7/cyclin H, 80 nM; at Aurora-A it was 2600 nM; on CDK9/cyclin T1 it was 10 nM; at GSK3β, 10 nM. The IC50 worked out at 70 nM on CDK2/cyclin E and 1200 nM on CDK1/cyclin B.

Turning to `COc1ccc(-c2ccnc(Nc3ccc(O)cc3)n2)cc1` [Compound 110, 4-[4-(4-Methoxy-phenyl)-pyrimidin-2-ylamino]-phenol], the IC50 at CDK4/cyclin D1 was found to be 1300 nM; on CDK2/cyclin A it was 80 nM; on CDK7/cyclin H, 1500 nM; at Aurora-A, 400 nM; on CDK9/cyclin T1, 20 nM; at CDK2/cyclin E, 120 nM. Further, the IC50 on CDK1/cyclin B was 500 nM.

These data come from patent US20070021419A1, “2-Aminophenyl-4-phenylpyrimidines as kinase inhibitors” (Cyclacel Limited, priority 2003, published 2007).
